Reference: patent publication US12559474B2, “Triazine derivatives having virus replication inhibitory activity and pharmaceutical composition comprising the same” (priority 2021, dated 2026)
Read-outs that look alike come from different tables or passages of the source.

Legend:
SARS-CoV-2 3CL protease = SARS-CoV-2 3CL protease (Severe acute respiratory syndrome coronavirus 2, UniProt P0DTD1); test: biochemical; details: 50% SARS-CoV-2 3CL protease inhibitory concentration, read-out: IC50
SARS-CoV-2 = test: microbe, parasite or virus in culture; type: cell-based; details: Severe acute respiratory syndrome coronavirus 2, VeroE6/TMPRSS2, 72 h, 50% SARS-CoV-2 infected cell death inhibitory concentration, VeroE6/TMPRSS2 cells, 3 days culture

| Compound | IC50 (SARS-CoV-2 3CL protease; given as class symbols) | EC50 (SARS-CoV-2; class symbols) | IC50 (SARS-CoV-2 3CL protease; RapidFire MS) | EC50 (SARS-CoV-2; CellTiter-Glo 2.0) |
| --- | --- | --- | --- | --- |
| Cc1cncc(-n2c(=O)nc(Nc3cc4cn(C)nc4cc3Cl)n(Cc3cc(F)cc(Cl)c3)c2=O)c1 [II-0177] | < 0.1 µM | < 1 µM | – | – |
| O=c1[nH]cccc1Cn1c(=O)nc(Nc2cc3cn(CCO)nc3cc2Cl)n(Cc2cc(F)c(F)c(F)c2)c1=O [Compound I-0281] | – | – | 0.0038 µM | 4.18 µM |
| COc1ccc(Nc2nc(=O)n(CC3CCN(C)C3)c(=O)n2Cc2cc(F)c(F)c(F)c2)cc1 (centres unmarked) [II-0259] | – | – | 3.4 µM | 36.3 µM |
| CN(C)C(=O)c1ccc(Cn2c(=O)nc(Nc3cc4cn(CC(F)F)nc4cc3Cl)n(Cc3cc(F)c(F)c(F)c3)c2=O)c(=O)[nH]1 [Compound I-0066] | < 0.1 µM | 1 to 10 µM | – | – |
| Cn1cc2cc(Nc3nc(=O)n(-c4cncc(Cl)c4)c(=O)n3Cc3cc(F)c(F)cc3F)ccc2n1 [II-0288] | – | – | 0.099 µM | 2.4 µM |
| COc1ccc(Nc2nc(=O)n(-c3cnc4sccn34)c(=O)n2Cc2cc(F)c(F)c(F)c2)cc1 [II-0393] | – | – | 3.1 µM | 6.08 µM |
| CCn1cc2cc(Nc3nc(=O)n(-c4cncc(C)c4)c(=O)n3Cc3cc(C#N)c(F)cc3C)c(Cl)cc2n1 [II-0233] | – | – | 0.0015 µM | 0.065 µM |
| CNc1nc2cc(Cl)c(Nc3nc(=O)n(-c4cncc(C)c4)c(=O)n3Cc3ccc(F)c(C#N)c3)cc2s1 [II-0382] | < 0.1 µM | < 1 µM | – | – |
| Cc1cncc(-n2c(=O)nc(Nc3cc4sc(NCC(F)(F)F)nc4cc3Cl)n(Cc3ccc(F)c(C#N)c3)c2=O)c1 [II-0526] | < 0.1 µM | 1 to 10 µM | – | – |
| O=c1[nH]cc(F)cc1Cn1c(=O)nc(Nc2cc3c(cc2Cl)OCC3)n(Cc2cc(F)c(F)cc2F)c1=O [II-0022] | < 0.1 µM | < 1 µM | – | – |
| Cc1cncc(-n2c(=O)nc(Nc3cc4c(cc3Cl)OCCC4)n(Cc3ccc(F)c(C#N)c3)c2=O)c1 [II-0144] | < 0.1 µM | < 1 µM | – | – |
| Cn1cnc(Cn2c(=O)nc(Nc3cc4c(-n5cccn5)n(C)nc4cc3Cl)n(Cc3cc(F)c(F)cc3F)c2=O)n1 [II-0461] | < 0.1 µM | 1 to 10 µM | – | – |
| N#Cc1cc(Cn2c(Nc3ccc4c(c3)CCO4)nc(=O)n(-c3cncc(C(F)F)c3)c2=O)ccc1F [Compound I-0349] | < 0.1 µM | 1 to 10 µM | – | – |
| COc1ccc(Nc2nc(=O)n(Cc3cc(N4CCCC4)c[nH]c3=O)c(=O)n2Cc2cc(F)c(F)c(F)c2)cc1 [II-0014] | – | – | 2.4 µM | 22.1 µM |
| Cn1cc2cc(Nc3nc(=O)n(-c4cncc5ccccc45)c(=O)n3Cc3cc(F)c(F)c(F)c3)c(Cl)cc2n1 [Compound I-0378] | < 0.1 µM | < 1 µM | – | – |
| CN(C)C(=O)c1ccc(Cn2c(=O)nc(Nc3cc4c(cc3Cl)OCC4)n(Cc3cc(F)c(F)c(F)c3)c2=O)c(=O)[nH]1 [Compound I-0064] | < 0.1 µM | 1 to 10 µM | – | – |
| O=C1CN=CC=C1Cn1c(=O)nc(Nc2cc3c(cc2Cl)OCCC3)n(Cc2cc(F)c(F)cc2F)c1=O [II-0047] | < 0.1 µM | < 1 µM | – | – |
| Cn1cc2cc(Nc3nc(=O)n(-c4cncc(Cl)c4)c(=O)n3Cc3cc(F)c(F)c(C#N)c3)c(F)cc2n1 [II-0367] | < 0.1 µM | < 1 µM | – | – |
| CNc1nc2ccc(Nc3nc(=O)n(-c4cncc(Cl)c4)c(=O)n3Cc3cc(C#N)ccc3Cl)cc2s1 [II-0398] | < 0.1 µM | < 1 µM | – | – |

| Compound | IC50 (SARS-CoV-2 3CL protease; given as class symbols) | EC50 (SARS-CoV-2; class symbols) | IC50 (SARS-CoV-2 3CL protease; RapidFire MS) | EC50 (SARS-CoV-2; CellTiter-Glo 2.0) |
| --- | --- | --- | --- | --- |
| Cc1nc2cc(Cl)c(Nc3nc(=O)n(Cc4ccc[nH]c4=O)c(=O)n3Cc3cc(F)c(F)c(F)c3)cc2n1CC(F)F [Compound I-0444] | < 0.1 µM | 1 to 10 µM | 0.0051 µM | 3.94 µM |
| Cc1cncc(-n2c(=O)nc(Nc3cc4cn(C)nc4cc3Cl)n(Cc3cc(F)c(F)cc3OCC(F)(F)F)c2=O)c1 [II-0435] | < 0.1 µM | 1 to 10 µM | – | – |
| COc1ccc(Oc2nc(=O)n(Cc3ccc[nH]c3=O)c(=O)n2Cc2cc(F)c(F)c(F)c2)c(C)c1 [Compound I-0128] | – | < 1 µM | 9.7 µM | – |
| Cc1nc2cc(Cl)c(Nc3nc(=O)n(Cc4ccc[nH]c4=O)c(=O)n3Cc3cc(F)c(F)c(F)c3)cc2s1 [Compound I-0370] | < 0.1 µM | 1 to 10 µM | – | – |
| Cn1cnc(Cn2c(=O)nc(Nc3cc4cn(CC(F)F)nc4cc3Cl)n(Cc3cc(Cl)c(F)cc3F)c2=O)n1 [II-0569] | – | – | 0.0042 µM | 0.419 µM |
| N#Cc1cnc2[nH]c(=O)c(Cn3c(=O)nc(Nc4ccc5c(c4)CCO5)n(Cc4cc(F)c(F)c(F)c4)c3=O)cc2c1 [II-0322] | < 0.1 µM | 1 to 10 µM | – | – |
| Cn1cnc(Cn2c(=O)nc(Nc3cc4cn(CC5CCCO5)nc4cc3Cl)n(Cc3cc(Cl)c(F)cc3F)c2=O)n1 (racemic) [II-0409] | < 0.1 µM | 1 to 10 µM | – | – |
| N#Cc1cc(Cn2c(Nc3ccc4c(c3)CCO4)nc(=O)n(-c3cncc(Cl)c3)c2=O)ccc1F [Compound I-0348] | < 0.1 µM | < 1 µM | – | – |
| COc1ccc(Nc2nc(=O)n(Cc3ccc[nH]c3=O)c(=O)n2Cc2cc(Cl)c(F)cc2F)cc1 [Compound I-0226] | < 0.1 µM | 1 to 10 µM | – | – |
| COc1ccc(Nc2nc(=O)n(-c3nncc4cnn(C)c34)c(=O)n2Cc2cc(F)c(F)c(F)c2)cc1 [II-0401] | – | – | 0.29 µM | 2.33 µM |
| O=c1nc(Nc2ccc3nn(CC(F)F)cc3c2)n(Cc2cc(F)c(F)c(F)c2)c(=O)n1-c1cncc2ccccc12 [Compound I-0472] | < 0.1 µM | < 1 µM | – | – |
| Cc1cncc(-n2c(=O)nc(Nc3cc4cn(C)nc4cc3Cl)n(Cc3cc(F)ccc3F)c2=O)c1 [II-0199] | < 0.1 µM | < 1 µM | – | – |
| CSc1nc(=O)n(-c2cncc3ccccc23)c(=O)n1Cc1cc(F)c(F)c(F)c1 [II-0232] | – | < 1 µM | 3.7 µM | – |
| Cc1nc2cc(Cl)c(Nc3nc(=O)n(Cc4cc5ccsc5[nH]c4=O)c(=O)n3Cc3cc(F)c(F)c(F)c3)cc2n1C [Compound I-0390] | < 0.1 µM | 1 to 10 µM | 0.004 µM | 3.16 µM |
| Cc1cncc(-n2c(=O)nc(Nc3cc4sc(NCC(F)F)nc4cc3Cl)n(Cc3ccc(F)c(C#N)c3)c2=O)c1 [II-0524] | < 0.1 µM | 1 to 10 µM | – | – |
| Cn1cnc(Cn2c(=O)nc(Nc3cc4cn(C(F)F)nc4cc3Cl)n(Cc3cc(F)c(F)c(F)c3)c2=O)n1 [Compound I-0434] | < 0.1 µM | 1 to 10 µM | – | – |
| COc1ccc(Nc2nc(=O)n(Cc3ccc[nH]c3=O)c(=O)n2Cc2cc(F)c(F)cc2F)cc1 [Compound I-0320] | < 0.1 µM | 1 to 10 µM | – | – |
| CNc1nc2cc(F)c(Nc3nc(=O)n(-c4cncc(C)c4)c(=O)n3Cc3cc(C#N)c(F)cc3C)cc2s1 [II-0234] | < 0.1 µM | < 1 µM | – | – |
| CNc1nc2ccc(Nc3nc(=O)n(-c4cncc(C)c4)c(=O)n3Cc3cc(C#N)ccc3Cl)cc2s1 [II-0497] | < 0.1 µM | < 1 µM | – | – |

| Compound | IC50 (SARS-CoV-2 3CL protease; given as class symbols) | EC50 (SARS-CoV-2; class symbols) | IC50 (SARS-CoV-2 3CL protease; RapidFire MS) | EC50 (SARS-CoV-2; CellTiter-Glo 2.0) |
| --- | --- | --- | --- | --- |
| Cn1cc2cc(Nc3nc(=O)n(-c4cnc5ccccn45)c(=O)n3Cc3cc(F)c(F)c(Cl)c3)c(Cl)cc2n1 [II-0490] | – | – | 0.083 µM | 8.7 µM |
| Cc1cncc(-n2c(=O)nc(Nc3cc4cn(C)nc4cc3Cl)n(Cc3cc(C#N)c(F)cc3C)c2=O)c1 [II-0015] | – | – | 0.0015 µM | 0.035 µM |
| COC(=O)Nc1nc2cc(Cl)c(Nc3nc(=O)n(Cc4ncn(C)n4)c(=O)n3Cc3cc(F)c(F)cc3F)cc2s1 [II-0075] | < 0.1 µM | < 1 µM | – | – |
| Cn1cnc(Cn2c(=O)nc(Nc3cc4cn(C5CC5)nc4cc3Cl)n(Cc3cc(F)c(F)cc3F)c2=O)n1 [II-0527] | < 0.1 µM | < 1 µM | – | – |
| Cn1cnc(Cn2c(=O)nc(Nc3cc4sc(N)nc4cc3Cl)n(Cc3cc(F)c(F)cc3F)c2=O)n1 [II-0536] | < 0.1 µM | 1 to 10 µM | – | – |
| Cc1cncc(-n2c(=O)nc(Nc3cc4cn(C)nc4cc3Cl)n(Cc3ccc(F)c(F)c3)c2=O)c1 [II-0028] | < 0.1 µM | < 1 µM | – | – |
| Cn1cc2cc(Nc3nc(=O)n(-c4cncc(C#N)c4)c(=O)n3Cc3cc(F)c(F)c(F)c3)c(Cl)cc2n1 [II-0491] | < 0.1 µM | 1 to 10 µM | – | – |
| CC(C)n1cc2cc(Nc3nc(=O)n(Cc4ncn(C)n4)c(=O)n3Cc3cc(F)c(F)cc3F)c(Cl)cc2n1 [II-0285] | < 0.1 µM | < 1 µM | – | – |
| CNc1nc2cc(F)c(Nc3nc(=O)n(Cc4ncn(C)n4)c(=O)n3Cc3cc(F)c(F)cc3F)cc2s1 [II-0400] | < 0.1 µM | 1 to 10 µM | – | – |
| Cc1cncc(-n2c(=O)nc(Nc3ccc4nn(CC(F)F)cc4c3)n(Cc3cc(C#N)ccc3C)c2=O)c1 [II-0521] | – | – | 0.0034 µM | 0.22 µM |
| CNc1ccnc(Cn2c(=O)nc(Nc3cc4cn(C)nc4cc3Cl)n(Cc3cc(F)c(F)cc3F)c2=O)n1 [II-0253] | < 0.1 µM | 1 to 10 µM | – | – |
| COc1ccc(Nc2nc(=O)n(Cc3ccc[nH]c3=O)c(=O)n2Cc2cc(F)cc(Cl)c2)cc1 [Compound I-0316] | < 0.1 µM | 1 to 10 µM | – | – |
| COc1ccc(Nc2nc(=O)n(Cc3ccc[nH]c3=O)c(=O)n2Cc2ccc(F)c(C#N)c2)c(Cl)c1 [Compound I-0331] | < 0.1 µM | 1 to 10 µM | – | – |
| Cc1cncc(-n2c(=O)nc(Nc3ccc4nn(C(C)C)cc4c3)n(Cc3ccc(F)c(C#N)c3)c2=O)c1 [II-0038] | < 0.1 µM | 1 to 10 µM | – | – |
| Cc1cncc(-n2c(=O)nc(Nc3cc4cn(C)nc4cc3Cl)n(Cc3cc(C#N)c(F)cc3OCC(C)C)c2=O)c1 [II-0071] | < 0.1 µM | < 1 µM | – | – |
| COc1ccc(Nc2nc(=O)n(Cc3ccc[nH]c3=O)c(=O)n2Cc2cc(F)c(F)c(F)c2)c(OC)c1 [Compound I-0042] | < 0.1 µM | 1 to 10 µM | – | – |
| Cc1cncc(-n2c(=O)nc(Nc3cc4cn(CCN5CCOCC5)nc4cc3Cl)n(Cc3cc(F)c(F)cc3F)c2=O)c1 [II-0007] | < 0.1 µM | < 1 µM | – | – |
| CNc1nc2cc(Cl)c(Nc3nc(=O)n(-c4cncc(C)c4)c(=O)n3Cc3cc(C#N)ccc3Cl)cc2o1 [II-0545] | – | – | 0.0086 µM | 0.75 µM |
